In the supplement of paper PMC10883282:
Counter-ions that a name gives are not always drawn.

Columns and labels:
Assay in all cases: relative viability vs DMSO control (72 h) (fraction); higher = more viable cells
SYO-1 = tested on: SYO-1
Method in brief: (§1)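 Sarcoma cell lines were grown in 384-well plates seeded toward 80–90% confluence and exposed 24 h later to serially diluted compound. After 72 h at 37 °C and 5% CO2, with 0.1% DMSO vehicle and a 5 µM positive control on the plates, ATPLite was read. Relative viability, given as percent growth averaged over up to triplicate wells, was rescaled so that 1 is full and 0 is none.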

KHOS-240S = tested on: KHOS-240S
Method in brief: as §1

SW1353 = tested on: SW1353
Method in brief: as §1

RD = tested on: RD
Method in brief: as §1

MES-SA = tested on: MES-SA
Method in brief: as §1

Cn1ncnc1[C@H]1c2n[nH]c(=O)c3cc(F)cc(c23)N[C@@H]1c1ccc(F)cc1 [Talazoparib]
relative viability
Conditions	KHOS-240S	MES-SA	RD	SW1353	SYO-1
0.00017 µM	0.9825	0.972	0.904	1.06	0.974
0.00051 µM	1.01	0.975	0.945	1.09	0.961
0.00152 µM	0.982	0.945	0.923	1.07	0.885
0.00457 µM	0.969	0.901	0.869	1.03	0.743
0.01372 µM	0.948	0.768	0.842	0.999	0.582
0.04115 µM	0.921	0.678	0.789	0.919	0.466
0.1235 µM	0.872	0.555	0.72	0.889	0.336
0.3704 µM	0.824	0.478	0.718	0.814	0.193
1.111 µM	0.677	0.392	0.629	0.753	0.081
3.333 µM	0.524	0.351	0.586	0.679	0.0279
10 µM	0.457	0.314	0.577	0.633	0.0191

C=C1C[C@@H]2CC[C@@]34C[C@H]5O[C@H]6[C@@H](O3)[C@H]3O[C@H](CC[C@@H]3O[C@H]6[C@H]5O4)CC(=O)C[C@@H]3[C@@H](OC)[C@@H](C[C@H](O)CN)O[C@H]3C[C@H]3O[C@@H](CC[C@@H]1O2)C[C@@H](C)C3=C [Eribulin Mesylate]
relative viability
Conditions	KHOS-240S	MES-SA	RD	SW1353	SYO-1
1.37 pM	1.11	1.01	1.069	1.13	0.915
4.1 pM	1.09	0.996	1.041	1.08	0.709
12.3 pM	1.1	0.973	0.9352	1.06	0.513
37 pM	0.9987	0.425	0.683	0.975	0.388
0.00011 µM	0.655	0.472	0.442	0.935	0.323
0.00033 µM	0.504	0.311	0.268	0.702	0.319
0.001 µM	0.365	0.254	0.254	0.56	0.312
0.003 µM	0.245	0.178	0.247	0.497	0.354
0.009 µM	0.179	0.122	0.273	0.474	0.365
0.027 µM	0.15	0.109	0.254	0.441	0.345
460 fM	1.07	0.996	1.07	1.16	1.01

Clc1ccc(Nc2nnc(Cc3ccncc3)c3ccccc23)cc1 [Vatalanib]
relative viability
Conditions	KHOS-240S	MES-SA	RD	SW1353	SYO-1
0.00017 µM	1.03	0.897	1.09	0.9762	0.921
0.00051 µM	1.06	0.905	1.1	0.9786	0.915
0.00152 µM	1.05	0.908	1.1	0.939	0.937
0.00457 µM	1.04	0.902	1.095	0.962	0.926
0.01372 µM	1.04	0.925	1.093	0.935	0.929
0.04115 µM	1.01	0.92	1.08	0.9589	0.929
0.1235 µM	1.04	0.922	1.09	0.966	0.906
0.3704 µM	1.03	0.938	1.12	0.978	0.882
1.111 µM	0.986	0.937	1.12	0.93	0.807
3.333 µM	1.01	0.919	1.11	0.934	0.735
10 µM	1	0.854	1.03	0.881	0.651

CCN(CC)CCNC(=O)c1c(C)[nH]c(/C=C2\C(=O)Nc3ccc(F)cc32)c1C [Sunitinib]
relative viability
Conditions	KHOS-240S	MES-SA	RD	SW1353	SYO-1
0.00017 µM	1.06	0.911	1.11	0.978	0.952
0.00051 µM	1.06	0.927	1.11	0.994	0.9234
0.00152 µM	1.05	0.95	1.13	0.968	0.886
0.00457 µM	1.05	0.917	1.13	0.984	0.813
0.01372 µM	1.04	0.929	1.12	0.951	0.706
0.04115 µM	1.03	0.905	1.11	0.972	0.665
0.1235 µM	0.958	0.917	1.14	0.981	0.601
0.3704 µM	0.875	0.83	1.1	1	0.494
1.111 µM	0.655	0.578	0.958	0.988	0.406
3.333 µM	0.204	0.305	0.0418	0.017	-0.00767
10 µM	0.0104	-0.00247	0.00227	0.0071	-0.00903
